The test system of this assay is MOLM-13 cells. Description: MOLM-13 Cell Proliferation Assay (indicator of DHODH inhibition). The assay is classed as cell-based. The note with it: Homo sapiens, 72 Hours of culture, CellTiter-Glo, no uridine. An outline of the steps: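 Proliferation readout via CellTiter-Glo luminescence after 72 h compound treatment (37 °C, 5% CO2, 0.5% DMSO) of MOLM-13 cells seeded at 10^4 per well in RPMI 1640/10% FBS, used as a DHODH-inhibition indicator since these cells rely on de novo pyrimidine synthesis.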
(In ATP-based viability assays light output follows the ATP content of the culture.)

The structures appear in SMILES notation. pIC50: −log10 of the molar value.

Drawing on patent publication US20250186437A1, “CARBOLINE COMPOUNDS AND USE THEREOF” (PTC Therapeutics, Inc., priority 2021, published 2025), this text covers IC50 for 12 compounds.

By pIC50 is commonly meant −log10 of the IC50, conventionally taken in molar units. High values mean a low IC50, low ones a high IC50. As to `Cc1nc(N2CCc3c([nH]c4cc(F)c(Cl)cc34)C2c2cccc(F)c2F)nc(C)c1C` (stereo not drawn) [Compound 171, 6-chloro-1-(2,3-difluorophenyl)-7-fluoro-2-(4,5,6-trimethylpyrimidin-2-yl)-2,3,4,9-tetrahydro-1H-pyrido[3,4-b]indole], the pIC50 is 8.30.
The same measure for `FC(F)(F)c1cnnc(N2CCc3c([nH]c4ccc(Cl)cc34)C2c2ccc(N3CCOCC3)nc2)n1` (stereo not drawn) [Compound 429, 6-chloro-1-[6-(morpholin-4-yl)pyridin-3-yl]-2-[5-(trifluoromethyl)-1,2,4-triazin-3-yl]-2,3,4,9-tetrahydro-1H-pyrido[3,4-b]indole]: 8.80; for `Fc1cncc(C2c3[nH]c4cc(F)c(Cl)cc4c3CCN2c2nccc(C(F)(F)F)n2)c1` (stereo not drawn) [Compound 145, 6-chloro-7-fluoro-1-(5-fluoropyridin-3-yl)-2-[4-(trifluoromethyl)pyrimidin-2-yl]-2,3,4,9-tetrahydro-1H-pyrido[3,4-b]indole]: 7.76.
Compound `Cc1ccc(C2c3[nH]c4ccc(Cl)c(F)c4c3CCN2c2nccc(C#N)n2)c(F)c1F` (stereo not drawn) [Compound 198, 2-[6-chloro-1-(2,3-difluoro-4-methylphenyl)-5-fluoro-1,3,4,9-tetrahydro-2H-pyrido[3,4-b]indol-2-yl]pyrimidine-4-carbonitrile] had a negative-log IC50 (pIC50) of 8.92.
The figure for `Cc1nc(N2CCc3c([nH]c4ccc(Cl)c(F)c34)C2c2ccc(Cl)cc2)ncc1F` (stereo not drawn) [Compound 70, 6-chloro-1-(4-chlorophenyl)-5-fluoro-2-(5-fluoro-4-methylpyrimidin-2-yl)-2,3,4,9-tetrahydro-1H-pyrido[3,4-b]indole] is 8.17.
The same measure for `CN1CCN(c2ncc([C@H]3c4[nH]c5ccc(Cl)cc5c4CCN3c3nccc(C(F)(F)F)n3)cn2)CC1` [Compound 484, (1S)-6-chloro-1-[2-(4-methylpiperazin-1-yl)pyrimidin-5-yl]-2-[4-(trifluoromethyl)pyrimidin-2-yl]-2,3,4,9-tetrahydro-1H-pyrido[3,4-b]indole]: 8.59.
`Cc1ccnc(N2CCc3c([nH]c4cc(F)c(Cl)cc34)C2c2ccc(Cl)cc2)n1` (stereo not drawn) [Compound 38, 6-chloro-1-(4-chlorophenyl)-7-fluoro-2-(4-methylpyrimidin-2-yl)-2,3,4,9-tetrahydro-1H-pyrido[3,4-b]indole] gave a pIC50 of 7.61.
The compound `Fc1cnc(N2CCc3c([nH]c4cc(F)c(Cl)cc34)C2c2ccc(C3CC3)cc2)nc1` (stereo not drawn) [Compound 31, 6-chloro-1-(4-cyclopropylphenyl)-7-fluoro-2-(5-fluoropyrimidin-2-yl)-2,3,4,9-tetrahydro-1H-pyrido[3,4-b]indole] showed a negative-log IC50 (pIC50) of 7.62.
In turn, `Cc1ccc([C@H]2c3[nH]c4ccc(Cl)cc4c3CCN2c2nc(F)nc(N3CCN(C)CC3)n2)c(F)c1F` [Compound 476, (1S)-6-chloro-1-(2,3-difluoro-4-methylphenyl)-2-[4-fluoro-6-(4-methylpiperazin-1-yl)-1,3,5-triazin-2-yl]-2,3,4,9-tetrahydro-1H-pyrido[3,4-b]indole] had a pIC50 of 8.12.
The figure for `Cc1ccc([C@H]2c3[nH]c4ccc(Cl)cc4c3CCN2c2nccc(C(F)(F)F)n2)cc1` [Compound 161, (1S)-6-chloro-1-(4-methylphenyl)-2-[4-(trifluoromethyl)pyrimidin-2-yl]-2,3,4,9-tetrahydro-1H-pyrido[3,4-b]indole] is 8.92.
For `FC(F)(F)c1ccnc(N2CCc3c([nH]c4ccc(Cl)cc34)C2c2cnc(N3C4CCC3COC4)nc2)n1` (stereo not drawn) [Compound 337, 6-chloro-1-[2-(3-oxa-8-azabicyclo[3.2.1]octan-8-yl)pyrimidin-5-yl]-2-[4-(trifluoromethyl)pyrimidin-2-yl]-2,3,4,9-tetrahydro-1H-pyrido[3,4-b]indole], the negative-log IC50 (pIC50) is 8.09.
The figure for `Cc1nc(N2CCc3c([nH]c4ccc(Cl)cc34)C2c2ccc(N3CCOCC3)nc2)nc(C(F)(F)F)n1` (stereo not drawn) [Compound 439, 6-chloro-2-[4-methyl-6-(trifluoromethyl)-1,3,5-triazin-2-yl]-1-[6-(morpholin-4-yl)pyridin-3-yl]-2,3,4,9-tetrahydro-1H-pyrido[3,4-b]indole] is 8.72.
